± gives the expanded uncertainty stated by the source.
Key:
[1] = for surface tension liquid-gas: Pendant drop shape; for viscosity / mass density: 101.33 kPa, Liquid; for viscosity: Concentric cylinders viscometry; for mass density: Vibrating tube method
[2] = wn = mass fraction of the nth substance listed; conditions: 303.15 K; for surface tension liquid-gas: Pendant drop shape; for viscosity / mass density: 100 kPa, Liquid; for viscosity: Concentric cylinders viscometry; for mass density: Vibrating tube method

| Compound | surface tension liquid-gas ([1]; 293.15 K) [mN/m] | viscosity ([1]; 293.15 K) [mPa·s] | mass density ([1]; 293.15 K) [kg/m3] | surface tension liquid-gas ([1]; 303.15 K) [mN/m] | viscosity ([1]; 303.15 K) [mPa·s] | mass density ([1]; 303.15 K) [kg/m3] | surface tension liquid-gas ([1]; 313.15 K) [mN/m] | viscosity ([1]; 313.15 K) [mPa·s] | mass density ([1]; 313.15 K) [kg/m3] | surface tension liquid-gas ([1]; 323.15 K) [mN/m] | viscosity ([1]; 323.15 K) [mPa·s] | mass density ([1]; 323.15 K) [kg/m3] | surface tension liquid-gas ([1]; 333.15 K) [mN/m] | viscosity ([1]; 333.15 K) [mPa·s] | mass density ([1]; 333.15 K) [kg/m3] | surface tension liquid-gas ([1]; 343.15 K) [mN/m] | viscosity ([1]; 343.15 K) [mPa·s] | mass density ([1]; 343.15 K) [kg/m3] | surface tension liquid-gas ([1]; 353.15 K) [mN/m] | viscosity ([1]; 353.15 K) [mPa·s] | also measured |
| --- | --- | --- | --- | --- | --- | --- | --- | --- | --- | --- | --- | --- | --- | --- | --- | --- | --- | --- | --- | --- | --- |
| C1CCC2=[NH+]CCCN2CC1.CC(=O)[O-] [2,3,4,6,7,8,9,10-octahydropyrimido[1,2-a]azepinium acetate] | 36.88 ± 0.78 | 164.74 ± 4.4 | 1076 ± 4.1 | 35.94 ± 0.77 | 84.73 ± 2 | 1069.1 ± 4.1 | 34.6 ± 0.76 | 48.34 ± 1.1 | 1062.3 ± 4.1 | 33.47 ± 0.75 | 30.38 ± 0.69 | 1055.6 ± 4.1 | 32.38 ± 0.75 | 20.36 ± 0.46 | 1048.7 ± 4.1 | 31.46 ± 0.74 | 14.39 ± 0.33 | 1041.8 ± 4.1 | 30.63 ± 0.73 | 10.59 ± 0.24 | mass density ([1]; 353.15 K): 1034.9 ± 4.1 kg/m3; viscosity ([1]; 363.15 K): 8.052 ± 0.18 mPa·s; mass density ([1]; 363.15 K): 1028 ± 4 kg/m3 |
| C1CCC2=NCCC[NH+]2CC1.O=C([O-])C(F)(F)F [1,8-diazabicyclo[5.4.0]undec-7-enium trifluoroacetate] + O | – | – | – | – | – | – | – | – | – | – | – | – | – | – | – | – | – | – | – | – | surface tension liquid-gas ([2]; w2 = 0.001118): 31.98 ± 0.74 mN/m; surface tension liquid-gas ([2]; w2 = 0.002196): 32.01 ± 0.74 mN/m; surface tension liquid-gas ([2]; w2 = 0.003948): 32.06 ± 0.74 mN/m; surface tension liquid-gas ([2]; w2 = 0.005067): 32.09 ± 0.74 mN/m; surface tension liquid-gas ([2]; w2 = 0.006935): 32.14 ± 0.74 mN/m; viscosity ([2]; w2 = 0.001118): 493.76 ± 18 mPa·s; viscosity ([2]; w2 = 0.002196): 493.59 ± 18 mPa·s; viscosity ([2]; w2 = 0.003948): 493.33 ± 18 mPa·s; viscosity ([2]; w2 = 0.005067): 493.17 ± 18 mPa·s; viscosity ([2]; w2 = 0.006935): 492.85 ± 18 mPa·s; mass density ([2]; w2 = 0.001118): 1256.6 ± 4.2 kg/m3; mass density ([2]; w2 = 0.002196): 1256.2 ± 4.2 kg/m3; mass density ([2]; w2 = 0.003948): 1255.7 ± 4.2 kg/m3; mass density ([2]; w2 = 0.005067): 1255.2 ± 4.2 kg/m3; mass density ([2]; w2 = 0.006935): 1254.6 ± 4.2 kg/m3 |
| C1CCC2=[NH+]CCCN2CC1.O=S(=O)([O-])C(F)(F)F | 30.39 ± 0.73 | 1113.1 ± 49 | 1361 ± 4.3 | 29.8 ± 0.73 | 524.23 ± 19 | 1352.7 ± 4.3 | 29.27 ± 0.72 | 276 ± 8.5 | 1344.5 ± 4.3 | 28.83 ± 0.72 | 158.89 ± 4.2 | 1336.7 ± 4.3 | 28.31 ± 0.72 | 98.25 ± 2.4 | 1329 ± 4.3 | 27.71 ± 0.71 | 64.4 ± 1.5 | 1321.2 ± 4.2 | 27.15 ± 0.71 | 44.29 ± 1 | mass density ([1]; 353.15 K): 1313.5 ± 4.2 kg/m3; viscosity ([1]; 363.15 K): 31.75 ± 0.72 mPa·s; mass density ([1]; 363.15 K): 1305.9 ± 4.2 kg/m3 |
| C1CCC2=[NH+]CCCN2CC1.O=S(=O)([O-])C(F)(F)F + O | – | – | – | – | – | – | – | – | – | – | – | – | – | – | – | – | – | – | – | – | surface tension liquid-gas ([2]; w2 = 0.001106): 29.8 ± 0.7 mN/m; surface tension liquid-gas ([2]; w2 = 0.002067): 29.74 ± 0.73 mN/m; surface tension liquid-gas ([2]; w2 = 0.003286): 29.66 ± 0.73 mN/m; surface tension liquid-gas ([2]; w2 = 0.004194): 29.6 ± 0.7 mN/m; surface tension liquid-gas ([2]; w2 = 0.005671): 29.51 ± 0.72 mN/m; viscosity ([2]; w2 = 0.001106): 524.23 ± 19 mPa·s; viscosity ([2]; w2 = 0.002067): 524.18 ± 19 mPa·s; viscosity ([2]; w2 = 0.003286): 524.11 ± 19 mPa·s; viscosity ([2]; w2 = 0.004194): 524.06 ± 19 mPa·s; viscosity ([2]; w2 = 0.005671): 523.99 ± 19 mPa·s; mass density ([2]; w2 = 0.001106): 1352.7 ± 4.3 kg/m3; mass density ([2]; w2 = 0.002067): 1352.2 ± 4.3 kg/m3; mass density ([2]; w2 = 0.003286): 1351.6 ± 4.3 kg/m3; mass density ([2]; w2 = 0.004194): 1351.1 ± 4.3 kg/m3; mass density ([2]; w2 = 0.005671): 1350.5 ± 4.3 kg/m3 |
| C1CCC2=NCCC[NH+]2CC1.CS(=O)(=O)[O-] [1,8-diazabicyclo[5.4.0]undec-7-enium methanesulfonate] + O | – | – | – | – | – | – | – | – | – | – | – | – | – | – | – | – | – | – | – | – | surface tension liquid-gas ([2]; w2 = 0.001054): 41.35 ± 0.81 mN/m; surface tension liquid-gas ([2]; w2 = 0.001987): 41.43 ± 0.81 mN/m; surface tension liquid-gas ([2]; w2 = 0.003524): 41.56 ± 0.82 mN/m; surface tension liquid-gas ([2]; w2 = 0.004663): 41.69 ± 0.82 mN/m; surface tension liquid-gas ([2]; w2 = 0.005967): 41.78 ± 0.82 mN/m; viscosity ([2]; w2 = 0.001054): 1177 ± 54 mPa·s; viscosity ([2]; w2 = 0.001987): 1176.8 ± 54 mPa·s; viscosity ([2]; w2 = 0.003524): 1176.5 ± 54 mPa·s; viscosity ([2]; w2 = 0.004663): 1176.3 ± 54 mPa·s; viscosity ([2]; w2 = 0.005967): 1176.1 ± 54 mPa·s; mass density ([2]; w2 = 0.001054): 1219.8 ± 4.2 kg/m3; mass density ([2]; w2 = 0.001987): 1219.37 ± 4.2 kg/m3; mass density ([2]; w2 = 0.003524): 1218.75 ± 4.2 kg/m3; mass density ([2]; w2 = 0.004663): 1218.3 ± 4.2 kg/m3; mass density ([2]; w2 = 0.005967): 1217.81 ± 4.2 kg/m3 |
| C1CCC2=[NH+]CCCN2CC1.CC(=O)[O-] [2,3,4,6,7,8,9,10-octahydropyrimido[1,2-a]azepinium acetate] + O | – | – | – | – | – | – | – | – | – | – | – | – | – | – | – | – | – | – | – | – | surface tension liquid-gas ([2]; w2 = 0.001127): 35.94 ± 0.87 mN/m; surface tension liquid-gas ([2]; w2 = 0.002156): 35.99 ± 0.87 mN/m; surface tension liquid-gas ([2]; w2 = 0.003932): 36.09 ± 0.87 mN/m; surface tension liquid-gas ([2]; w2 = 0.005106): 36.15 ± 0.87 mN/m; surface tension liquid-gas ([2]; w2 = 0.006373): 36.23 ± 0.87 mN/m; viscosity ([2]; w2 = 0.001127): 84.73 ± 2.2 mPa·s; viscosity ([2]; w2 = 0.002156): 84.7 ± 2.2 mPa·s; viscosity ([2]; w2 = 0.003932): 84.66 ± 2.2 mPa·s; viscosity ([2]; w2 = 0.005106): 84.62 ± 2.2 mPa·s; viscosity ([2]; w2 = 0.006373): 84.59 ± 2.2 mPa·s; mass density ([2]; w2 = 0.001127): 1069.1 ± 4.5 kg/m3; mass density ([2]; w2 = 0.002156): 1068.4 ± 4.5 kg/m3; mass density ([2]; w2 = 0.003932): 1066.9 ± 4.5 kg/m3; mass density ([2]; w2 = 0.005106): 1065.9 ± 4.5 kg/m3; mass density ([2]; w2 = 0.006373): 1065 ± 4 kg/m3 |

Now from value to compound, other results behind:

| surface tension liquid-gas ([1]; 293.15 K) [mN/m] | viscosity ([1]; 293.15 K) [mPa·s] | mass density ([1]; 293.15 K) [kg/m3] | surface tension liquid-gas ([1]; 303.15 K) [mN/m] | viscosity ([1]; 303.15 K) [mPa·s] | mass density ([1]; 303.15 K) [kg/m3] | surface tension liquid-gas ([1]; 313.15 K) [mN/m] | viscosity ([1]; 313.15 K) [mPa·s] | mass density ([1]; 313.15 K) [kg/m3] | surface tension liquid-gas ([1]; 323.15 K) [mN/m] | viscosity ([1]; 323.15 K) [mPa·s] | mass density ([1]; 323.15 K) [kg/m3] | surface tension liquid-gas ([1]; 333.15 K) [mN/m] | viscosity ([1]; 333.15 K) [mPa·s] | mass density ([1]; 333.15 K) [kg/m3] | surface tension liquid-gas ([1]; 343.15 K) [mN/m] | viscosity ([1]; 343.15 K) [mPa·s] | mass density ([1]; 343.15 K) [kg/m3] | surface tension liquid-gas ([1]; 353.15 K) [mN/m] | viscosity ([1]; 353.15 K) [mPa·s] | Compound | also measured |
| --- | --- | --- | --- | --- | --- | --- | --- | --- | --- | --- | --- | --- | --- | --- | --- | --- | --- | --- | --- | --- | --- |
| 32.47 ± 0.75 | 1193.2 ± 54 | 1264.6 ± 4.2 | 31.98 ± 0.74 | 493.76 ± 18 | 1256.6 ± 4.2 | 31.52 ± 0.74 | 236.97 ± 7 | 1248.9 ± 4.2 | 31.05 ± 0.74 | 127.92 ± 3.2 | 1241.4 ± 4.2 | 30.65 ± 0.73 | 75.72 ± 1.7 | 1234 ± 4.2 | 30.15 ± 0.73 | 48.46 ± 1.1 | 1226.6 ± 4.2 | 29.74 ± 0.73 | 32.94 ± 0.74 | C1CCC2=NCCC[NH+]2CC1.O=C([O-])C(F)(F)F [1,8-diazabicyclo[5.4.0]undec-7-enium trifluoroacetate] | mass density ([1]; 353.15 K): 1219.2 ± 4.2 kg/m3; viscosity ([1]; 363.15 K): 23.43 ± 0.53 mPa·s; mass density ([1]; 363.15 K): 1211.9 ± 4.2 kg/m3 |
| 41.84 ± 0.82 | 3310.1 ± 190 | 1226.6 ± 4.2 | 41.35 ± 0.81 | 1177 ± 53 | 1219.8 ± 4.2 | 40.49 ± 0.81 | 497.53 ± 18 | 1212.9 ± 4.2 | 39.58 ± 0.8 | 241.49 ± 7.2 | 1206.1 ± 4.2 | 38.79 ± 0.79 | 131.6 ± 3.3 | 1199.5 ± 4.2 | 38.23 ± 0.79 | 78.46 ± 1.8 | 1193 ± 4 | 37.54 ± 0.78 | 50.26 ± 1.1 | C1CCC2=NCCC[NH+]2CC1.CS(=O)(=O)[O-] [1,8-diazabicyclo[5.4.0]undec-7-enium methanesulfonate] | mass density ([1]; 353.15 K): 1186.5 ± 4.2 kg/m3; viscosity ([1]; 363.15 K): 34.12 ± 0.77 mPa·s; mass density ([1]; 363.15 K): 1180.2 ± 4.2 kg/m3 |

From the NIST ThermoML archive (doi:10.1016/j.jct.2016.10.021)
